Data reported in US20230146795A1, “ENHANCEMENT OF ANTI-TUMOR ACTIVITY OF SHP2 INHIBITOR PYRIMIDINONE IN COMBINATION WITH NOVEL CANCER MEDICINES IN CANCERS” (TAIHO PHARMACEUTICAL CO., LTD., priority 2020, published 2023).

System: NCI-H358, MKN45, NCI-H23, RT 4, MV-4-11, RMG-I
Assay: Anti-proliferation assay, summary over the cell lines of table 3
Type: cell-based
Description: Cell lines were obtained from ATCC or Health Science Research Resources Bank.
384 well culture plate (781086, Greiner Bio-One International) was used for cell survival rate measurement assay. Each cell lines were collected by ordinary method, then suspended in indicated medium containing 10% fetal bovine serum in table 3. The number of cells seeded per well was set to 500 cells/20 μL. After incubation at 37° C. for 24 hours under 5% CO2, Compound 1 and additional compound having an antitumor effect or a vehicle (DMSO) was added to each well by using D300e Digital Dispenser (Tecan). The concentration of Compound 1 was set to 10 concentrations. The concentration of each anti-cancer reagents set to 8 concentrations including 0 nM. After adding the medicine to the cells, the cells were further incubated at 37° C. for 3 days under 5% CO2. Cell survival rates were calculated by adding 20 μL of CellTiter-Glo(registered trademark) 2. 0 (Promega) solution to each well, incubating the cells at room temperature for 10 minutes, and then measuring the chemiluminescence intensity of each well using a plate reader (ARVO).
A combination index (CI) value at each combined concentration of the medicines was determined.

Measured: anti-proliferation activity in combination

Cn1nc2ccc(-c3c[nH]c4nc(N5[C@H]6CC[C@@H]5[C@H](N)C6)n(C)c(=O)c34)c(Cl)c2c1Cl [Compound 1, 2-((1R,2R,4S)-2-amino-7-azabicyclo[2.2.1]heptan-7-yl)-5-(3,4-dichloro-2-methyl-2H-indazol-5-yl)-3-methyl-3,7-dihydro-4H-pyrrolo[2,3-d]pyrimidin-4-one]
synergistically enhanced: with ALK, Her family (EGFR and HER2), BCR-ABL, FLT3, multi-kinase (PDGFR and VEGFR), c-kit inhibitor | with BCL2 inhibitor | with CDK4/6 inhibitor | with HDAC inhibitor | with PI3K inhibitor or AKT inhibitor | with RAF inhibitor, MEK inhibitor or ERK inhibitor | with anthracycline antibiotics | with anti-metabolite | with microtubule inhibitor | with platinum antitumor agent | with topoisomerase inhibitor
